According to ChEMBL document CHEMBL1141189, “Preparation and biological evaluation of indole, benzimidazole, and thienopyrrole piperazine carboxamides: potent human histamine h(4) antagonists” (J Med Chem, 2005):

Tests used:
Histamine H4 receptor [1] = biological target: T1, Histamine H4 receptor (Homo sapiens, UniProt Q9H3N8); test: Antagonistic activity at human histamine H4 receptor in SK-N-MC cells by inhibition of forskolin-stimulated cAMP-mediated reporter gene activity; format: functional, cell-based; conditions: for Kb: read-out: pA2 (converted)
[2] = In vitro half life in rat S9 fraction; format: ADME, Liver
Rattus norvegicus [3] = test: Maximum concentration in rat administered with 10 mg/kg, po; format: ADME, organism-based; design: dose 10 mg/kg, route oral; conditions: in vivo
[4] = Half life in rat administered with 2 mg/kg, iv; format: ADME, organism-based; design: dose 2 mg/kg, route intravenous; conditions: in vivo
[5] = In vitro half life in human liver microsomes; format: ADME, Microsome
[6] = In vitro half life in human S9 fraction; format: ADME, Liver
[7] = In vitro half life in rat liver microsomes; format: ADME, Microsome
[8] = Half life in rat administered with 10 mg/kg, po; format: ADME, organism-based; design: dose 10 mg/kg, route oral; conditions: in vivo
Rattus norvegicus [9] = test: Area under curve in rat administered with 10 mg/kg, po; format: ADME, organism-based; design: dose 10 mg/kg, route oral; conditions: in vivo
[10] = Oral bioavailability in rat administered with 10 mg/kg, po; format: ADME, organism-based; conditions: in vivo
Histamine H3 receptor = Histamine H3 receptor (Homo sapiens, UniProt Q9Y5N1); test: Binding affinity to histamine H3 receptor
Histamine H4 receptor [11] = biological target: T1, Histamine H4 receptor; test: Displacement of [3H]histamine from recombinant human histamine H4 receptor in SK-N-MC cells; format: cell-based

Histamine H3 receptor, sequence (Q9Y5N1 whole entry): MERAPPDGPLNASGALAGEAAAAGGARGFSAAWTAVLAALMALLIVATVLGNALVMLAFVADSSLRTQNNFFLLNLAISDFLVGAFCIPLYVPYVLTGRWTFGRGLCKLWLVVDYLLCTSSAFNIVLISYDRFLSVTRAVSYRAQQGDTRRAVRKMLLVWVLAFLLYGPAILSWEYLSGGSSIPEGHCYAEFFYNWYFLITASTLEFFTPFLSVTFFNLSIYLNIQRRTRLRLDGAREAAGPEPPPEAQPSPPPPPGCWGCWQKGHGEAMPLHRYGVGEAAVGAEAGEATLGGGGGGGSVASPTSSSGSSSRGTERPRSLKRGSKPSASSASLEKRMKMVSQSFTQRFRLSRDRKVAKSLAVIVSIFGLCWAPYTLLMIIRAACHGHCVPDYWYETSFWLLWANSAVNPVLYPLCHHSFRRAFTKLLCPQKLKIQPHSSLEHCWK

| Structure (SMILES) | Kb (Histamine H4 receptor [1]) [nM] | Ki (Histamine H4 receptor [11]) [nM] | also measured |
| --- | --- | --- | --- |
| CN1CCN(C(=O)c2cc3cc(F)cc(F)c3[nH]2)CC1 | 20 |  |  |
| CN1CCN(C(=O)c2cc3cc(Cl)sc3[nH]2)CC1 | 12.6 |  | half-life [2]: 0.783 h; Cmax (Rattus norvegicus [3]): < 100 nM; half-life [4]: 6 min; half-life [5]: 0.883 h |
| CN1CCN(C(=O)c2cc3cc(Cl)ccc3[nH]2)CC1 [JNJ-7777120] |  |  | half-life [6]: 1.67 h; half-life [7]: 0.075 h; half-life [2]: 1.07 h; Cmax (Rattus norvegicus [3]): 1800 nM; half-life [8]: 2.3 h; AUC (Rattus norvegicus [9]): 7 uM.h/L; bioavailability [10]: 22%; half-life [5]: 0.467 h |
| O=C(c1cc2ccccc2[nH]1)N1CCNCC1 |  |  | Ki (Histamine H3 receptor): 9000 nM |
| CN1CCN(C(=O)c2cc3cc(O)ccc3[nH]2)CC1 | 79.4 |  |  |
| CN1CCN(C(=O)c2cc3cc(F)ccc3[nH]2)CC1 | 20 |  |  |
| CN1CCN(C(=O)c2cc3cc(Br)ccc3[nH]2)CC1 | 15.8 |  |  |
| CN1CCN(C(=O)c2cc3c(Cl)c(Cl)ccc3[nH]2)CC1 | 6.31 |  |  |
| CN1CCN(C(=O)c2cc3cc(C(F)(F)F)ccc3[nH]2)CC1 |  | 412 |  |
| Cc1cc(Cl)c2[nH]c(C(=O)N3CCN(C)CC3)cc2c1 | 50.1 | 33 |  |
| CN1CCN(C(=O)c2cc3sccc3[nH]2)CC1 |  | 90 |  |
| Cc1cc(C)c2[nH]c(C(=O)N3CCN(C)CC3)cc2c1 | 31.6 |  |  |
| Cc1c(Cl)sc2cc(C(=O)N3CCN(C)CC3)[nH]c12 | 20 |  |  |
| Cc1cccc2cc(C(=O)N3CCN(C)CC3)[nH]c12 |  |  | pA2 (Histamine H4 receptor [1]): 7.9 |
| CN1CCN(C(=O)c2cc3ccsc3[nH]2)CC1 |  | 90 |  |
| CN1CCN(C(=O)c2nc3cc(Cl)cc(Cl)c3[nH]2)CC1 |  | 136 |  |
| CN1CCN(C(=O)c2cc3sc(Cl)cc3[nH]2)CC1 | 50.1 |  |  |
| Cc1c(F)ccc2[nH]c(C(=O)N3CCN(C)CC3)cc12 | 20 | 27 |  |
| CN1CCN(C(=O)c2cc3cc(Cl)cc(Cl)c3[nH]2)CC1 | 10 |  |  |
| Cc1csc2cc(C(=O)N3CCN(C)CC3)[nH]c12 | 31.6 |  |  |

Further lines, with some results ahead:

| Kb (Histamine H4 receptor [1]) [nM] | Ki (Histamine H4 receptor [11]) [nM] | Structure (SMILES) | also measured |
| --- | --- | --- | --- |
| 50.1 | 19 | CN1CCN(C(=O)c2nc3cc(F)ccc3[nH]2)CC1 |  |
| 158 |  | CN1CCN(C(=O)c2cc3c(Br)cccc3[nH]2)CC1 |  |
| 126 |  | CN1CCN(C(=O)c2cc3cccc(Br)c3[nH]2)CC1 |  |
| 79.4 |  | CN1CCN(C(=O)c2cc3cccc(Cl)c3[nH]2)CC1 |  |
| 20 |  | Cc1ccc2[nH]c(C(=O)N3CCN(C)CC3)cc2c1 |  |
| 15.8 | 7 | Cc1c(F)ccc2[nH]c(C(=O)N3CCN(C)CC3)nc12 |  |
| 7.94 |  | CN1CCN(C(=O)c2cc3cccc(N)c3[nH]2)CC1 |  |
| 63.1 | 35 | CN1CCN(C(=O)c2nc3ccccc3[nH]2)CC1 |  |
|  | 427 | CN1CCN(C(=O)c2nc3cc(C(F)(F)F)ccc3[nH]2)CC1 |  |
| 126 | 23 | Cc1cc(Cl)c2nc(C(=O)N3CCN(C)CC3)[nH]c2c1 |  |
| 25.1 | 30 | Cc1cccc2[nH]c(C(=O)N3CCN(C)CC3)nc12 |  |
| 20 | 26 | CN1CCN(C(=O)c2nc3cc(Cl)ccc3[nH]2)CC1 | half-life [6]: 1.67 h; half-life [7]: 0.2 h; half-life [2]: 1.47 h; Cmax (Rattus norvegicus [3]): 1800 nM; half-life [8]: 1 h; AUC (Rattus norvegicus [9]): 2.1 uM.h/L; bioavailability [10]: 27%; Ki (Histamine H3 receptor): 14100 nM; half-life [5]: 1.67 h |
| 79.4 | 49 | CN1CCN(C(=O)c2nc3c(F)c(F)ccc3[nH]2)CC1 |  |
|  | 244 | CN1CCN(C(=O)c2nc3c(N)cccc3[nH]2)CC1 |  |
